Read-outs that look alike come from different tables or passages of the source.
Columns and labels:
RC1 (DU145-RC1) cells [1] = details: adopted from Urasaki Y et al.; cited from earlier work
[2] = test system: DU145 prostate cancer cells; details: DU-145; adopted from Urasaki Y et al.; cited from earlier work
[3] = test system: RC0.1 (DU145-RC0.1) cells; experiment: Cell growth inhibition, DU145 sub-line with Top1 mutation; type: cell-based, human
Excerpt: (§1) Each dot is the mean±SD derived from 3 independent assays.
(§2) Irinotecan and topotecan are the only two analogs derived from direct modification of camptothecin (CPT) that are approved by the FDA for cancer treatment in clinical practice. […] In this regard, we obtain one DU145 parental prostate cancer cell line and two DU145-derived sub-lines with Top1 mutations (DU145-RC0.1, DU145-RC1).

RC1 (DU145-RC1) cells [4] = experiment: as above; type: cell-based, human
Excerpt: as §1, §2

[5] = test system: RC0.1 (DU145-RC0.1) cells; details: adopted from Urasaki Y et al.; cited from earlier work
[6] = test system: DU145 prostate cancer cells; experiment: Cell growth inhibition, cell counting after 72 h; type: cell-based, human
Excerpt: as §1, §2

[7] = test system: HCT116 colon cancer cells; experiment: cells; type: cell-based, human; details: for RP: IC50 of topotecan divided by IC50 of the drug
Method: (§3) Cancer cell viability and growth are determined by MTT assay. […] MTT is used as a colorimetric substrate for measuring cell viability and growth. When cell growth is inhibited, there is an alteration of cellular redox activity, and thus rendering cells unable to reduce the MTT dye. Cells are seeded in 96 well plates overnight and then treated with or without a compound/drug in the presence or absence of an protein molecule inhibitor (e.g. ABCG2 inhibitor ko143) for 48-72 hours, MTT is added to a final concentration 0.5 mg/ml. Cells are continuously incubated in a 5% CO2 incubator at 37° C. for 4 h with MTT and then lysed with a cell lysis buffer (20% SDS, 50% N,N-dimethylformamide, pH 4.7), 100 μl per well, for 4 h in the incubator. Subsequently, cell absorbance in each well is measured at 570 nm with an Ultra Microplate Reader (Bio-Tek Instruments). Results are reported as the mean±SD from 3-5 independent assays at each point. […] After 72 hours, media is removed and cells are harvested using 0.5 ml of 0.25% Trypsin-EDTA. Cells are counted and viability is analyzed on a Vi-CELL XR Cell Viability Analyzer (Beckman Coulter).

HCT116-G7 cells = experiment: cells; type: cell-based, human; details: for RP: IC50 of topotecan divided by IC50 of the drug
Method: as §3

HCT116-NS6 cells = experiment: cells; type: cell-based, human; details: for RP: IC50 of topotecan divided by IC50 of the drug
Method: as §3

HCT116-A2 cells = experiment: cells; type: cell-based, human; details: for RP: IC50 of topotecan divided by IC50 of the drug
Method: as §3

ABCG2 in HCT116-A2 cells [8] = type: cell-based, human
Method: Cell numbers are then counted at each drug concentration used. […] Cell numbers at each dot is the mean±SD derived from 3 independent assays. Data are plotted graphically and EC50 values are calculated using GraphPad Prism 6.0.
ABCG2 positive HCT116-derived colon cancer cells (HCT116-A2) grown at sub-confluence are treated with a series of concentrations of topotecan in triplicate for 72 hours in the presence or absence of Ko143 at 1 μM concentrations as shown. Cell numbers are then counted at each topotecan concentration used. […] Cell numbers at each dot is the mean±SD derived from 3 independent assays. Data are plotted graphically and EC50 values and R-values are calculated using GraphPad Prism 6.0.
Clinically, development of resistance to irinotecan and topotecan occurs commonly during treatment, often involving the upregulation of ABCG2. By increasing the rate of drug export, ABCG2 decreases the amount of SN-38, irinotecan or topotecan that accumulates intracellularly, thereby protecting cancer cells from the cytotoxic effects of these chemotherapeutic drugs.

HCT116-C4 cells = experiment: cells; type: cell-based, human; details: for RP: IC50 of topotecan divided by IC50 of the drug
Method: Cancer cell viability and growth are determined by MTT assay. […] MTT is used as a colorimetric substrate for measuring cell viability and growth. When cell growth is inhibited, there is an alteration of cellular redox activity, and thus rendering cells unable to reduce the MTT dye. Cells are seeded in 96 well plates overnight and then treated with or without a compound/drug in the presence or absence of an protein molecule inhibitor (e.g. ABCG2 inhibitor ko143) for 48-72 hours, MTT is added to a final concentration 0.5 mg/ml. Cells are continuously incubated in a 5% CO2 incubator at 37° C. for 4 h with MTT and then lysed with a cell lysis buffer (20% SDS, 50% N,N-dimethylformamide, pH 4.7), 100 μl per well, for 4 h in the incubator. Subsequently, cell absorbance in each well is measured at 570 nm with an Ultra Microplate Reader (Bio-Tek Instruments). Results are reported as the mean±SD from 3-5 independent assays at each point. Alternatively, for FIG. 16, FIG. 17 and FIG. 19, cells are plated at a density of 300,000 cells/well in 6-well plates; cells are allowed to attach on the plate overnight. […] After 72 hours, media is removed and cells are harvested using 0.5 ml of 0.25% Trypsin-EDTA. Cells are counted and viability is analyzed on a Vi-CELL XR Cell Viability Analyzer (Beckman Coulter).

HCT116-C8 cells = experiment: cells; type: cell-based, human; details: for RP: IC50 of topotecan divided by IC50 of the drug
Method: as §3

ABCG2 in HCT116-A2 cells [9] = experiment: Growth inhibition after ABCG2 shRNA silencing; type: cell-based, human; details: 72 hours
Method: Actin is internal control. B and C. […] Cells at sub-confluence are infected with lentiviral particles containing nonsense shRNA (ns), or AGCG2-specific shRNA (sh1, sh2) to silence ABCG2 expression in the cells. […] Viability for each dose was determined using a ViCELL XR cell viability analyzer and normalized to that of DMSO control. Error bars=SEM, n=3 independent experiments. Data are plotted graphically and EC50 values are calculated using GraphPad Prism 6.0.

in vivo = details: SCID, mouse, in vivo, ip
Method: Individual tumor curves derived from individual mice are shown. A. Mice with FaDu head-&-neck tumor xenografts were first treated with irinotecan at its maximum tolerated dose (MTD, 100 mg/kg, IP) weekly for 4-5 times (black arrow). […] B. Mice with FaDu tumor xenografts were first treated with topotecan at its MTD (4 mg/kg, IP) via daily×5 schedules for 4 cycles (each black arrow is one cycle). […] C. Mice with SW620 CRC xenografts were first treated with irinotecan at its MTD (IP, weekly×4, black arrow). […] D. Mice with SW620 xenograft tumors were first treated with topotecan at its MTD.

ABCG2 in HEK293 cells [10] = test system: ABCG2 in HEK293 cells
ABCG2 in HEK293 cells [11] = experiment: Intracellular drug concentration by flow cytometry; type: cell-based, human
Method: Cells are then incubated for 3 h in 37 C and 5% CO2, with manual agitation every 30 min. After incubation, cells are pelleted and supernatant is removed. Cell pellets are washed twice with ice-cold PBS, and then suspended in 300 uL ice-cold PBS, and placed on ice until analysis. Cells are analyzed on a LSR II flow cytometer (BD Biosciences, San Jose Calif.) with a 355 nm laser and a 540 nm band-pass filter to detect emission. Median fluorescence intensity (MFI) of each drug+/−Ko143 is compared.

HCT-8 cells = experiment: Colony formation after 2 h or 6 h drug treatment; type: cell-based, human
Method: Subconfluent SW620, HCT-8, and HCT-116 cells were lysed and analyzed for the expression of MDR1 and ABCG2 using western blots (WB). Actin is the internal control. […] Cell growth/viability was then analyzed by MTT assays. Each time point in the individual curve is the mean±SD from 3 to 5 independent assays. […] Drugs were then washed out and cells were allowed to grow in new medium without drugs for 2 weeks. Cell colonies were stained with crystal violet solution; images were digitally taken. Triplicate results are shown.
Cell growth is then measured and the data are plotted as percentage of growth inhibition (no drug treatment was set at 0%). […] C. […] Representative cancer cell images were taken with a digital camera under phase-contrast microscope.

cancer cells = experiment: Cell growth and viability, MTT; type: cell-based, human; details: 72 hours
Method: Actin is an internal control for equal protein loading. […] Subconfluent cancer cells as shown are treated with a series of concentrations of crolibulin as shown (0-100 μM) for 72 hours. Cell growth and viability are determined via MTT assay. Each curve is the mean±SD from 4 independent assays.
Crolibulin is an anticancer drug that targets endothelial cells of the cancer vasculature system. Therefore, crolibulin is considered as a vascular disrupt agent (VDA).

[12] = test system: human umbilical vein endothelial cells (HUVECS); experiment: Cell growth and viability, MTT; type: cell-based; details: 72 hours
survivin = experiment: Western blot for survivin expression in FaDu cells; type: cell-based, human; details: 24 hours
[13] = DU-145, IC50 of topotecan divided by IC50 of the drug

Question: Which IC50 (RC1 (DU145-RC1) cells [1]) does the source give for `CC[C@@]1(O)C(=O)OCc2c1cc1n(c2=O)Cc2cc3ccccc3nc2-1` [CPT, camptothecin] here?
Answer: 21700 nM

Question: And the IC50 [2]?
Answer: 60 nM

Question: And the “RP (relative potency)” value ([3]; RC0.1, IC50 of topotecan divided by IC50 of the drug)?
Answer: 0.97

Question: What about the “RP (relative potency)” value (RC1 (DU145-RC1) cells [4]; RC1, IC50 of topotecan divided by IC50 of the drug) of the same compound?
Answer: 2.69

Question: And the IC50 [5]?
Answer: 63300 nM

Question: And the “RP (relative potency)” value [6, 13]?
Answer: 3.17

Question: Which IC50 [7] does the source give for `CCc1c2c(nc3ccc(O)cc13)-c1cc3c(c(=O)n1C2)COC(=O)[C@]3(O)CC` [SN-38] here?
Answer: 0.192 nM

Question: What about the RP [7] of the same compound?
Answer: 2.474

Question: What about the IC50 (RC1 (DU145-RC1) cells [1]) of the same compound?
Answer: 4430 nM

Question: What about the IC50 (HCT116-G7 cells) of the same compound?
Answer: 4.76 nM

Question: What about the RP (HCT116-G7 cells) of the same compound?
Answer: 4.048

Question: What about the IC50 (HCT116-NS6 cells) of the same compound?
Answer: 1.11 nM

Question: And the RP (HCT116-NS6 cells)?
Answer: 5.055

Question: What about the IC50 (HCT116-A2 cells) of the same compound?
Answer: 43.4 nM

Question: And the RP (HCT116-A2 cells)?
Answer: 2.499

Question: And the IC50 [2]?
Answer: 40 nM

Question: And the “effect of ABCG2 inhibitor Ko143 on potency” value (ABCG2 in HCT116-A2 cells [8]; HCT116-A2 cells, 72 hours, Ko143 1 μM)?
Answer: Ko143 restores potency to SN-38

Question: And the IC50 (HCT116-C4 cells)?
Answer: 25.7 nM

Question: And the RP (HCT116-C4 cells)?
Answer: 3.337

Question: And the “RP (relative potency)” value [3]?
Answer: 5.24

Question: What about the “RP (relative potency)” value (RC1 (DU145-RC1) cells [4]) of the same compound?
Answer: 13.2

Question: And the IC50 (HCT116-C8 cells)?
Answer: 8.47 nM

Question: What about the RP (HCT116-C8 cells) of the same compound?
Answer: 44.69

Question: What about the IC50 [5] of the same compound?
Answer: 11700 nM

Question: And the “RP (relative potency)” value [6]?
Answer: 4.75

Question: And the “effect of silencing of ABCG2 on cell growth inhibition” value (ABCG2 in HCT116-A2 cells [9])?
Answer: significantly sensitizes SN-38 to inhibit cell growth

Question: With `CC[C@@]1(O)C(=O)OCc2c1cc1n(c2=O)Cc2cc3c(CN(C)C)c(O)ccc3nc2-1` [Topotecan, topotecan] as the compound, how does the MTD (in vivo) read?
Answer: 4 mg/kg

Question: What about the “effect of ABCG2 overexpression on IC50 for inhibition of cell growth” value (ABCG2 in HEK293 cells [10]) of the same compound?
Answer: significantly increases IC50

Question: What about the IC50 ([7]; Homo sapiens, HCT-116) of the same compound?
Answer: 0.747 nM

Question: And the RP [7]?
Answer: 1

Question: And the IC50 (RC1 (DU145-RC1) cells [1])?
Answer: 58300 nM

Question: What about the IC50 (HCT116-G7 cells; Homo sapiens) of the same compound?
Answer: 19.3 nM

Question: What about the RP (HCT116-G7 cells) of the same compound?
Answer: 1

Question: And the IC50 (HCT116-NS6 cells; Homo sapiens)?
Answer: 5.64 nM

Question: And the RP (HCT116-NS6 cells)?
Answer: 1

Question: And the IC50 (HCT116-A2 cells; Homo sapiens)?
Answer: 108 nM

Question: What about the RP (HCT116-A2 cells) of the same compound?
Answer: 1

Question: What about the IC50 [2] of the same compound?
Answer: 190 nM

Question: What about the “effect of ABCG2 inhibitor Ko143 on potency” value (ABCG2 in HCT116-A2 cells [8]) of the same compound?
Answer: ABCG2 is also a topotecan resistance factor

Question: What about the IC50 (HCT116-C4 cells; Homo sapiens) of the same compound?
Answer: 85.8 nM

Question: And the RP (HCT116-C4 cells)?
Answer: 1

Question: What about the “RP (relative potency)” value [3] of the same compound?
Answer: 1

Question: And the “RP (relative potency)” value (RC1 (DU145-RC1) cells [4])?
Answer: 1

Question: What about the “effect of ABCG2 overexpression on intracellular concentration” value (ABCG2 in HEK293 cells [11]) of the same compound?
Answer: decreases intracellular concentration

Question: What about the IC50 (HCT116-C8 cells; Homo sapiens) of the same compound?
Answer: 379 nM

Question: What about the RP (HCT116-C8 cells) of the same compound?
Answer: 1

Question: What about the IC50 [5] of the same compound?
Answer: 61200 nM

Question: And the “colony formation inhibition, 6 hours versus 2 hours of treatment” value (HCT-8 cells)?
Answer: significantly better colony formation inhibition

Question: And the “RP (relative potency)” value [6, 13]?
Answer: 1

Question: What does the source list for `COc1cc([C@H]2C(C#N)=C(N)Oc3c2ccc(N)c3N)cc(Br)c1OC` [crolibulin, reference compound]?
Answer: sensitivity of cancer cells (cancer cells): resistant to crolibulin inhibition; sensitivity of HUVEC cells [12]: sensitive to crolibulin inhibition; survivin expression (survivin): strongly induce survivin expression
